This experiment concerns HeLa-Parkin or HeLa-Parkin/USP30 cells. The experiment can be described thus: Mitochondrial membrane potential (TMRM signal). The experiment is classed as cell-based. The note with it: FCCP 10 μM.

Procedure: ΔΨm was measured using a fluorescence microplate reader (BioTek Instruments) in cells preincubated with Tetramethylrhodamine methyl ester (TMRM, Thermo Scientific) following manufacturer's instructions. Cells were washed in PBS before resuspension in Hank's balanced salt solution (HBSS; 156 mM NaCl, 3 mM KCl, 2 mM MgSO4, 1.25 mM KH2PO4, 2 mM CaCl2), 10 mM glucose and 10 mM HEPES; pH adjusted to 7.35 with NaOH) (1.0×10^6 cells/ml) containing 50 nM TMRM. For each individual experiment, average TMRM fluorescence was normalized to control cells.
We initially analyzed mitochondrial function using Tetramethylrhodamine (TMRM), a dye requiring mitochondrial membrane potential to accumulate within the mitochondria.

Regarding `N#CC(C#N)=NNc1ccc(OC(F)(F)F)cc1` [FCCP, Carbonyl cyanide-p-trifluoromethoxyphenylhydrazone, reference compound], the “TMRM staining (mitochondrial membrane potential)” value was “significant loss of staining”.
